In ChEMBL document CHEMBL1201862, “PubChem BioAssay data set” (2004):
Calls of active or inactive are those of the source.

Legend:
Cytochrome P450 2C9 = Cytochrome P450 2C9 (Homo sapiens, UniProt P11712); settings: Potency
Cytochrome P450 2D6 = Cytochrome P450 2D6 (Homo sapiens, UniProt P10635); experiment: qHTS Assay for Inhibitors and Substrates of Cytochrome P450 2D6. [Related pubchem assays: 410 ]; format: ADME; settings: read-out: Potency
Estrogen receptor = biological target: T1, Estrogen receptor (Homo sapiens, UniProt P03372);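 further: potency for inhibiting coactivator peptide recruitment to the receptor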
T1 sequence (P03372 whole entry): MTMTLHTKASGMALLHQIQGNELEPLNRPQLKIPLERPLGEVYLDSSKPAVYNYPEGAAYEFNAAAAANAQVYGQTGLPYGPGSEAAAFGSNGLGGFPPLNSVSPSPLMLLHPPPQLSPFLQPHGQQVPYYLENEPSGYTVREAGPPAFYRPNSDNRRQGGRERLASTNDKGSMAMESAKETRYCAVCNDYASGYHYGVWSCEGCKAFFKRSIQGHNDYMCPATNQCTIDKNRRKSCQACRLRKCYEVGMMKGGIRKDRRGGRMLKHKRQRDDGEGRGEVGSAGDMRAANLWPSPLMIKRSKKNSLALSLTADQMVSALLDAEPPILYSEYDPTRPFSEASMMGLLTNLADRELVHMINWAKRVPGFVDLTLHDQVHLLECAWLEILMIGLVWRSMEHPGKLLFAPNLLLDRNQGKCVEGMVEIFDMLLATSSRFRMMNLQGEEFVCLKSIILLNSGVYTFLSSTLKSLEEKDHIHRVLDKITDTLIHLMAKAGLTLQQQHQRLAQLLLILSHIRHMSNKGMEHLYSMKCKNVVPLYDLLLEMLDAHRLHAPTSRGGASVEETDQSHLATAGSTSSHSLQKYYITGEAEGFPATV

[1] = loss of viability in HepG2 cells – cell-based, CellTiter-Glo, cherry-picked, cytotoxicity control for Shn3 inhibitor project, dose response (AID 624134); format: functional
[2] = luciferase reporter signal suppression in cells – H4 neuroglioma cells, luminescence, dose response (AID 1990); format: functional, cell-based
Cytochrome P450 2C19 = Cytochrome P450 2C19 (Homo sapiens, UniProt P33261); experiment: Cytochrome panel assay with activity outcomes. Panel member name: p450-cyp2c19 Compounds with AC50 equal or less than 10 uM are considered active; format: functional; settings: read-out: AC50
Cytochrome P450 2C19, sequence (P33261 whole entry): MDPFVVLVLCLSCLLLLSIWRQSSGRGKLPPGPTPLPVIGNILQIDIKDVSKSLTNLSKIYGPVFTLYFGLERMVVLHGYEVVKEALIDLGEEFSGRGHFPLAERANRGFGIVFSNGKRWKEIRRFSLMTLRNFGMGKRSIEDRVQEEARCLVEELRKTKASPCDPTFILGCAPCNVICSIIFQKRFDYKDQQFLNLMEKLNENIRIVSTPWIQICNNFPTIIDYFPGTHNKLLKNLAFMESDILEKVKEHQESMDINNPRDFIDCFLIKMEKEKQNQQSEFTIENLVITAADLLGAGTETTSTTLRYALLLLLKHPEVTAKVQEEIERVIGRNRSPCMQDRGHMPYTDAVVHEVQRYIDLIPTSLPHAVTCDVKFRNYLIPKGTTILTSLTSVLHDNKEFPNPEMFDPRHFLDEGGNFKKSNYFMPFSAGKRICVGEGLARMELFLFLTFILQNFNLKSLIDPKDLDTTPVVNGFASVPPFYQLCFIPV

[3] = HEK-293T viability loss after treatment – luminescence, T-cell screen hits, cytotoxicity control for TCR NF-kB inhibitor project, dose response (AID 489026); format: functional, cell-based;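 further: cells exposed to compound about 14 hours before the viability readout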
Cytochrome P450 1A2 = biological target: T2, Cytochrome P450 1A2 (Homo sapiens, UniProt P05177);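 further: PubChem cytochrome P450 panel assay, CYP1A2 panel member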
T2 sequence (P05177 whole entry): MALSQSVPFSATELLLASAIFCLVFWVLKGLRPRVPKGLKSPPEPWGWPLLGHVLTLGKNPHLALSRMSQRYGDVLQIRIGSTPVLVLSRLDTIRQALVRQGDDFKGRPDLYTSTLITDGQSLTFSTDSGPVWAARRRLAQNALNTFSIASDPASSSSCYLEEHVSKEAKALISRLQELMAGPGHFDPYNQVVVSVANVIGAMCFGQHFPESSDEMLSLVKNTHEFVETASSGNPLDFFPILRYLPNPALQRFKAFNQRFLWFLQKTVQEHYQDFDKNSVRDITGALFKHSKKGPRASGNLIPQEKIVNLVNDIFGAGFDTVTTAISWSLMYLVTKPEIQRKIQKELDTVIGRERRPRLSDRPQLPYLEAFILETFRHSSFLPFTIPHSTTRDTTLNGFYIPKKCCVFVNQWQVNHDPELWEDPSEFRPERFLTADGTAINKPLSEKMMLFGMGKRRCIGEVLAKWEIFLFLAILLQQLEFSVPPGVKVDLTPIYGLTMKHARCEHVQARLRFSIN

[4] = NIH-3T3 fibroblast cytotoxicity, dose response, cytotoxicity control, cell-based, fluorescence, Alamar Blue, secondary assay (AID 2327); format: functional;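 further: NIH-3T3 mouse fibroblasts cultured with fluconazole at 8 µg/mL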
Cytochrome P450 3A4 = Cytochrome P450 3A4 (Homo sapiens, UniProt P08684);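 further: CYP3A4 tested as one member of a cytochrome P450 panel screen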
Cytochrome P450 3A4, sequence (P08684 whole entry): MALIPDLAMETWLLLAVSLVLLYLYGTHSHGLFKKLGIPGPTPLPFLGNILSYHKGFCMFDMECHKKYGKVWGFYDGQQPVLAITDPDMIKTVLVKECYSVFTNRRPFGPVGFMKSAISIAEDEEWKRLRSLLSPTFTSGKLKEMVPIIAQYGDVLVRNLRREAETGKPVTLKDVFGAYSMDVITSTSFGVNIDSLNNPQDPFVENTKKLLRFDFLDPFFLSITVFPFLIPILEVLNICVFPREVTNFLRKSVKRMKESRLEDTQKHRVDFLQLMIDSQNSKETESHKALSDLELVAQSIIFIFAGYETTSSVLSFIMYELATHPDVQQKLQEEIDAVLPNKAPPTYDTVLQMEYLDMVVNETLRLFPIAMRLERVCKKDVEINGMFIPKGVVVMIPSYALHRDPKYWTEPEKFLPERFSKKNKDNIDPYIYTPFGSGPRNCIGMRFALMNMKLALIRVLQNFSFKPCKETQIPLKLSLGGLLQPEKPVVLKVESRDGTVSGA

[5] = reduction of Shn3 3'UTR-driven luciferase in osteoblasts – cell-based, Clone20 osteoblasts, firefly luciferase, cherry-picked, dose response (AID 624132); format: functional;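 further: firefly luciferase luminescence from reporter carrying the Shn3 3'UTR in osteoblasts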
[6] = non-specific 3'UTR reporter inhibition in Clone20-Shn3RL – cell-based, Renilla luciferase, cherry-picked, counter-screen for Shn3 inhibitor project, dose response (AID 624133); format: functional
[7] = alpha-synuclein stem-loop luciferase translation blockers – H4 neuroglioma cells, luminescence, confirmation (AID 1988); format: functional, cell-based
[8] = Luminescence-based dose response cell-based high throughput screening assay for cytotoxic compounds using the IEC-6 intestinal epithelial cell line. [Related pubchem assays: 1858 (Summary AID.), 1825 (Counterscreen.), 1907 (Confirmation screen.)]; format: functional
INS1 = experiment: INS-1E survival protection against cytokine death – cell-based, luminescence, retest, dose response (AID 449756); format: functional; settings: Rattus norvegicus;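 further: cell death triggered by IL-1 beta plus TNF-alpha plus IFN-gamma mixture; protective hits raise ATP signal compared with cytokine alone wells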
[9] = fluconazole-exposed Candida albicans growth modulators – fluorescence, retest, confirmation (AID 2467); format: functional, cell-based
[10] = Luminescence Cell-Based Dose Response HTS to Identify Inhibitors of 5'UTR Stem-Loop Driven Prion Protein mRNA Translation in H4 Neuroglioblastoma Cells. [Related pubchem assays: 1827 (Project Summary), 1813 (Primary HTS)]; format: functional
[11] = biological target: Sphingosine 1-phosphate receptor 2 (Homo sapiens, UniProt O95136); experiment: Dose Response Cell Based Assay for Antagonists of the S1P2 Receptor. [Related pubchem assays: 856, 736 ]; format: functional
Sphingosine 1-phosphate receptor 2, sequence (O95136 whole entry): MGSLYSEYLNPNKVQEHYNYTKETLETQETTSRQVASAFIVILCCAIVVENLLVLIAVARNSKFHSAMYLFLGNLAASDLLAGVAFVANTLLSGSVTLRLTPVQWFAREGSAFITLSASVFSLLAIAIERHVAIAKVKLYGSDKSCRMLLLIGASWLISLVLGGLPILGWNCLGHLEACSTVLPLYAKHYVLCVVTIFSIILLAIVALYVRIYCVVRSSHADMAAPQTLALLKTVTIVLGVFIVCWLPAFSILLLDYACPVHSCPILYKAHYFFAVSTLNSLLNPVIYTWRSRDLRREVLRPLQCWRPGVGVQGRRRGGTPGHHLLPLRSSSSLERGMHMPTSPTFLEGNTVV

[12] = NIH3T3 cell viability loss – ATP luminescence, mouse fibroblasts, counter-screen, dose response (AID 2010); format: functional, cell-based;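 further: cells exposed to compound for about 90 hours before reading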
[13] = Trypanosoma cruzi growth suppression in host cells – NIH3T3 host cells, beta-gal luminescence, confirmation (AID 2044); format: functional, cell-based;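 further: intracellular parasites grown in NIH/3T3 mouse fibroblasts as host cells; luminescent beta-galactosidase reporter signal from transgenic T. cruzi replicating inside host cells; inhibitors lower the luminescence signal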
[14] = A Cell Based Secondary Assay To Explore Cytotoxicity of Compounds that Sensitize Mycobacterium Tuberculosis to Beta-Lactam Antibiotics.; format: functional
Hexokinase HKDC1 = biological target: T3, Hexokinase HKDC1 (Homo sapiens, UniProt Q2TB90); experiment: inhibition of HKDC1 glucose phosphorylation – biochemical, W721R variant, dose response (AID 504729); format: functional
T3 sequence (Q2TB90 whole entry): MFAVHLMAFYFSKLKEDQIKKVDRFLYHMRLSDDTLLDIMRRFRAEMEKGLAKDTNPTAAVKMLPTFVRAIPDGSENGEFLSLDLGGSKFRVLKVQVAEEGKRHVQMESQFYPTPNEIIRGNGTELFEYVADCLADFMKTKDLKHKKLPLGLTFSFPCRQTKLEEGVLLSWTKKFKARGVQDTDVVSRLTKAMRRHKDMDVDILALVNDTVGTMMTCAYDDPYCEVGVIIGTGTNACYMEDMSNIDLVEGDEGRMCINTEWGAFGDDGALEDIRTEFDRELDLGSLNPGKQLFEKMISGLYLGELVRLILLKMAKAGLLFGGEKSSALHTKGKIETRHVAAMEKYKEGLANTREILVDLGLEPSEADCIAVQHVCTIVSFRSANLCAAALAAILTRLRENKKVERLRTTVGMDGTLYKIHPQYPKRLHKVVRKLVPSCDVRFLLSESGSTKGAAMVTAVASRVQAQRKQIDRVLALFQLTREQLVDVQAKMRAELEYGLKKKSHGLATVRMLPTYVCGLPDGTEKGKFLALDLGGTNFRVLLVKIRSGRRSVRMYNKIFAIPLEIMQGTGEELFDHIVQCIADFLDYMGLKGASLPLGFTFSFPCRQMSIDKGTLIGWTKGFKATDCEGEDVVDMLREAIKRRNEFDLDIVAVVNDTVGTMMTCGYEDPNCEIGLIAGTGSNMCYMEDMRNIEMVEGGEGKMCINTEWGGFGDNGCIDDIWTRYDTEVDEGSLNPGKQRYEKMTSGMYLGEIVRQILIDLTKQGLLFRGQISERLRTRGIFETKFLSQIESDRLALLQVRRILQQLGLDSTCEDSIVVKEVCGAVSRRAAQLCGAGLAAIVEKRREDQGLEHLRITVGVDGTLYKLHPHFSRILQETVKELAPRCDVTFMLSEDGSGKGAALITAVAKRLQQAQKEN

[15] = biological target: Peroxisome proliferator-activated receptor gamma/Nuclear receptor coactivator 3 (Homo sapiens, UniProt P37231); format: functional;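 further: agonist potency for raising coactivator recruitment to the receptor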
[16] = biological target: Peroxisome proliferator-activated receptor gamma/Nuclear receptor coactivator 1 (Homo sapiens, UniProt P37231); format: functional;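 further: agonist potency as compounds enhance coactivator SRC-1 recruitment to PPARgamma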
Peroxisome proliferator-activated receptor gamma/Nuclear receptor coactivator 1, sequence (P37231 whole entry): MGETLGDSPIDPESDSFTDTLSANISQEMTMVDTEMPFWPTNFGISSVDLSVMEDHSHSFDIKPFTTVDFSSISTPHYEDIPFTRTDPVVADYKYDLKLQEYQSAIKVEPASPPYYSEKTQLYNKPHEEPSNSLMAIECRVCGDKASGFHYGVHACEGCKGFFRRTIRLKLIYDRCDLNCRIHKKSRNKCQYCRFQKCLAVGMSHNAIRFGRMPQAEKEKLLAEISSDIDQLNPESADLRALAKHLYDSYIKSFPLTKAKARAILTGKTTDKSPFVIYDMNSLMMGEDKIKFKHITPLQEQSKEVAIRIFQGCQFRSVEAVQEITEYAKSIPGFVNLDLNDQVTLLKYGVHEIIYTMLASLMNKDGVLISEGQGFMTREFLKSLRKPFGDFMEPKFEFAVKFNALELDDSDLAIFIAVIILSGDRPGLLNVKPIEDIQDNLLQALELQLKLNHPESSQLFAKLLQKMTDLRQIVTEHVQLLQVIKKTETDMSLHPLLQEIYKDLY
Peroxisome proliferator-activated receptor gamma/Nuclear receptor coactivator 1, sequence (Q15788 whole entry, further chain): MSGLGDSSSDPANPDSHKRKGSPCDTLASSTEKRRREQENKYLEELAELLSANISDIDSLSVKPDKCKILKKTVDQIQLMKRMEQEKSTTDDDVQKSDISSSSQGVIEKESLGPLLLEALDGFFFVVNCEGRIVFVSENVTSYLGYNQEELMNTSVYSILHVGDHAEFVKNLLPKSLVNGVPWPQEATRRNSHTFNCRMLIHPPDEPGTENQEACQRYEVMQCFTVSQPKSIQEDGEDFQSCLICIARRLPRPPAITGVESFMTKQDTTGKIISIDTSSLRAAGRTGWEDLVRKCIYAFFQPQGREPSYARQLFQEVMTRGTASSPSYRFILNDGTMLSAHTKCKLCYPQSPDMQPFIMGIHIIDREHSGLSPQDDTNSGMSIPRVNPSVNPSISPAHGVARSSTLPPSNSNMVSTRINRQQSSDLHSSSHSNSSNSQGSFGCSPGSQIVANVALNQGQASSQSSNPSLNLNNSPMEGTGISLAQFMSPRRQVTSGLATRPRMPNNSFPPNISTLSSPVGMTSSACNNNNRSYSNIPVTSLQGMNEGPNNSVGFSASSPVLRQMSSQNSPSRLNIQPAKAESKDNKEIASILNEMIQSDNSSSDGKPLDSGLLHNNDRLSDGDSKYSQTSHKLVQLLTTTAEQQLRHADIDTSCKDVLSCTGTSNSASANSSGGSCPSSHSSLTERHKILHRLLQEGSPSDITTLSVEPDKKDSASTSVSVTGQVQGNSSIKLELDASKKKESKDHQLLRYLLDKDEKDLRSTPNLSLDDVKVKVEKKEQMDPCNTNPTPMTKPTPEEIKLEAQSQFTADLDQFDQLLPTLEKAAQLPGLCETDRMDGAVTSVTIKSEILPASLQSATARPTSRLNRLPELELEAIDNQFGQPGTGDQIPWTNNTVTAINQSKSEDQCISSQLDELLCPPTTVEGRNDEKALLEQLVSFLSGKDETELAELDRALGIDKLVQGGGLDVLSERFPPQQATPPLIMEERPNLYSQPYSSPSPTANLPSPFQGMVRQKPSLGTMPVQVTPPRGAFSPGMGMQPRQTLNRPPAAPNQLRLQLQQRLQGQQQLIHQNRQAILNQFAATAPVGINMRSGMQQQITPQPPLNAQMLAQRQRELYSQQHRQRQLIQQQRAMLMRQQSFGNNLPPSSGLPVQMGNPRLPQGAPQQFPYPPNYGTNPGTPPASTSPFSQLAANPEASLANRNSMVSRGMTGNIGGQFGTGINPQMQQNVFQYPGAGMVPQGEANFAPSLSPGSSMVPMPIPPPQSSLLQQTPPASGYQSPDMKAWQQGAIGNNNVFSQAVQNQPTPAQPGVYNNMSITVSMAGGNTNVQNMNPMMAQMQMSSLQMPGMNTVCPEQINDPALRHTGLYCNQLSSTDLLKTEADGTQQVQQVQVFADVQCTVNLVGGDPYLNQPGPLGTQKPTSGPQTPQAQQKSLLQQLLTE

[17] = biological target: Peroxisome proliferator-activated receptor gamma/Nuclear receptor coactivator 2 (Homo sapiens, UniProt P37231); format: functional;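 further: agonist potency for raising coactivator recruitment to the receptor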
[18] = Luminescence-based counterscreen assay for KLF5 inhibitors: dose response cell-based high throughput screening assay to identify cytotoxic compounds using the IEC-6 intestinal epithelial cell line. [Related pubchem assays: 1700 (Primary screen.), 1834 (Confirmation screen.), 1858 (Summary AID.), 1905 (Counterscreen.)]; format: functional

Cytochrome P450 2C9, sequence (P11712 whole entry): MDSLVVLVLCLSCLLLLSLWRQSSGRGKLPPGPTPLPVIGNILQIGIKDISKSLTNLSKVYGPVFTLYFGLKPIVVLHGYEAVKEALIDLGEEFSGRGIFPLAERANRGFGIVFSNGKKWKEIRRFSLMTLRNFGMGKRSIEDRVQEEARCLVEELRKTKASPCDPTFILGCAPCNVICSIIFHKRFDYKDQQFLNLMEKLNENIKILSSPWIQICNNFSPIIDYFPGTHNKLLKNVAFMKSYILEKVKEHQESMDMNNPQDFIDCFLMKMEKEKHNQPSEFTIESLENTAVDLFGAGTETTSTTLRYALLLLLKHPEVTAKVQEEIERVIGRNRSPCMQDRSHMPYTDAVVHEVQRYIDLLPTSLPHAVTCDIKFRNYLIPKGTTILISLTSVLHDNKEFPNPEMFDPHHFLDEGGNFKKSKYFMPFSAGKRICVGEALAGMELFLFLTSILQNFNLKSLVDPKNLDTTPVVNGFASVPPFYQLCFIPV
Cytochrome P450 2D6, sequence (P10635 whole entry): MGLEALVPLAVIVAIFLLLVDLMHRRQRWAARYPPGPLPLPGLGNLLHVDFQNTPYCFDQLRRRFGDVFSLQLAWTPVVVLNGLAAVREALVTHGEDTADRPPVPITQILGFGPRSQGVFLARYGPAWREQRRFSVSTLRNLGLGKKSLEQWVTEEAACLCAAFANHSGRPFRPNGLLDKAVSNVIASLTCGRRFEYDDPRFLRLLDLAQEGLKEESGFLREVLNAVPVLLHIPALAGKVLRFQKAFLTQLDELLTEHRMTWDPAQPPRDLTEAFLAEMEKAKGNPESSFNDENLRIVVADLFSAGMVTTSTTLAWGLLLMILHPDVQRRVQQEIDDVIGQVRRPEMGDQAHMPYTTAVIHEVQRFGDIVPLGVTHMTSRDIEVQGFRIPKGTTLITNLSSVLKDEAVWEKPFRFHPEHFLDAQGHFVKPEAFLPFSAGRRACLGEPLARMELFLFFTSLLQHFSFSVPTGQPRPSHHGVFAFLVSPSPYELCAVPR

## COc1cc(OC)cc([C@H](CNc2ncnc3c2ncn3[C@@H]2O[C@@H](CO)[C@H](O)[C@@H]2O)c2ccccc2C)c1
Cytochrome P450 2C9
  AC50: 0.0158 µM (inconclusive)
Cytochrome P450 2D6
  AC50: 39.8 µM (inconclusive)

## CC12C=C(/C=C/C=C/c3ccccc3)C(C)(C1)C(/C=C/c1ccccc1)CC2=O (stereo not drawn)
Cytochrome P450 2D6
  AC50: 3.16 µM (inconclusive)

## COC(=O)Oc1c(Br)c(=O)oc2ccccc12
Estrogen receptor
  IC50: > 50 µM (not active)

## Cn1c2c(c(=O)n(C)c1=O)C(C(F)(F)F)(C(F)(F)F)NC(c1ccc(Cl)cc1)=N2
[1]
  AC50: 0.756 µM (active)
[2]
  EC50: 0.383 µM (active)
Cytochrome P450 2C19
  AC50: 2.82 µM (inconclusive)
[3]
  IC50: > 80 µM (inactive)
Cytochrome P450 1A2
  AC50: 17.8 µM (inconclusive)
[4]
  EC50: 2.61 µM (active)
Cytochrome P450 3A4
  AC50: 15.8 µM (inconclusive)
[5]
  AC50: 1.47 µM (active)
[6]
  AC50: 2.03 µM (active)
[7]
  EC50: 2.83 µM (active)
[8]
  IC50: 2.72 µM (active)
INS1
  AC50: 0.983 µM (active)
[9]
  EC50: 0.628 µM (active)
[10]
  EC50: 3.25 µM (active)
[11]
  IC50: 3.79 µM (active)

## CCCCOc1ccc(/C=N/Nc2cc(N3CCOCC3)nc(C)n2)cc1
[12]
  EC50: > 60 µM (not active)
[13]
  EC50: 2.46 µM (active)
[14]
  CC50: > 40 µM (active)

## COC(=O)c1ccc(NC(=O)CSc2n[nH]c(-c3ccncc3)n2)cc1
Hexokinase HKDC1
  IC50: 17.6 µM (active)

## CC(C)(C)c1nnc(NC(=O)CN2C(=O)C3C4C=CC(C4)C3C2=O)s1 (stereo not drawn)
[15]
  EC50: > 79.4 µM (not active)
[16]
  EC50: > 79.4 µM (not active)
[17]
  EC50: > 79.4 µM (not active)

## CCOC(=O)c1sc(NC(=O)c2cc3ccccc3o2)nc1C
[18]
  IC50: > 39.8 µM (not active)

## CC(C)C[C@@H](CC(=O)N[C@@H](CCCN)CC(=O)N[C@@H]1CCNC[C@H]1C(=O)N[C@H](CC(=O)N[C@@H](CCC(=O)O)CC(=O)O)CC(C)C)NC(=O)[C@@H]1CCCC[C@H]1N
Cytochrome P450 2C9
  AC50: 12.6 µM (inconclusive)
